From ChEMBL document CHEMBL5584333, “Evo312: An Evodiamine Analog and Novel PKCβI Inhibitor with Potent Antitumor Activity in Gemcitabine-Resistant Pancreatic Cancer” (J Med Chem, 2024)
The source made the active and inactive calls. The calls are words filed in the database; no cut-off is given here.

Tests used:
[1] = test system: Gemcitabine-resistant PANC-1; assay: Cell cycle distribution in human Gemcitabine-resistant PANC-1 cells assessed as G2/M phase cells at 160 nM incubated for 24 hrs by RNase/PI staining based flow cytometric analysis (reference value: 37.53 %); format: functional
[2] = target: Glycogen synthase kinase-3 beta (Homo sapiens) (UniProt P49841); assay: Inhibition of GSK3beta phosphorylation in human Gemcitabine-resistant PANC-1 cells at 160 nM incubated for 24 hrs by phospho-kinase array analysis; format: cell-based
Glycogen synthase kinase-3 beta (Homo sapiens), sequence (P49841 whole entry, looked up): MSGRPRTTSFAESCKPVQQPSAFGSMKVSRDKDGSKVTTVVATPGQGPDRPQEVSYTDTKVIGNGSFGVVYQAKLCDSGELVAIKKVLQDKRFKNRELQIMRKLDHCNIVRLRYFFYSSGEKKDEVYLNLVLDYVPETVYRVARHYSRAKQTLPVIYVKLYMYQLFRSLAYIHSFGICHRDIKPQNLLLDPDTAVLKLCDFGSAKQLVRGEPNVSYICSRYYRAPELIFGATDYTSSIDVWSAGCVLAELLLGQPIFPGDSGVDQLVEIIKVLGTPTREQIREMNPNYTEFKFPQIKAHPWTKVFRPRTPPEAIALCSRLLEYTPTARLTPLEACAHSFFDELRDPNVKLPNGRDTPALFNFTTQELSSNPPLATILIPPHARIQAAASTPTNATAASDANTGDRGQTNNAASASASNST

[3] = test system: Gemcitabine-resistant PANC-1; assay: Induction of apoptosis in human Gemcitabine-resistant PANC-1 cells assessed as upregulation of cleaved PARP level at 160 nM incubated for 48 hrs by Western blot analysis; format: functional, cell-based
[4] = test system: Gemcitabine-resistant PANC-1; assay: Cell cycle distribution in human Gemcitabine-resistant PANC-1 cells assessed as G0-G1 phase cells at 80 nM incubated for 24 hrs by RNase/PI staining based flow cytometric analysis (reference value: 45.21 %); format: functional
PANC-1 = assay: Cytotoxicity against human PANC-1 cells assessed as inhibition of cell growth incubated for 72 hrs by SRB assay; format: functional, cell-based; conditions: PANC-1, 72 h
[5] = test system: Gemcitabine-resistant PANC-1; assay: Induction of apoptosis in human Gemcitabine-resistant PANC-1 cells assessed as upregulation of cleaved caspase-3 level at 160 nM incubated for 48 hrs by Western blot analysis; format: functional, cell-based
[6] = test system: Gemcitabine-resistant PANC-1; assay: Downregulation of p-PRAS40 expression in human Gemcitabine-resistant PANC-1 cells at 40 to 160 nM incubated for 24 hrs by Western blotting; format: functional, cell-based; conditions: dose 40-160 nM
[7] = test system: Gemcitabine-resistant PANC-1; assay: Antitumor activity against human Gemcitabine-resistant PANC-1 cells xenografted in male BALB/c nude mouse assessed as reduction in tumor weight at 10 mg/kg, ip administered three times in a week for 20 days relative to control; format: functional; parameters: scale not given: the % may be the effect or the level left; conditions: time 20 day
[8] = Toxicity in male BALB/c nude mouse xenografted with human Gemcitabine-resistant PANC-1 cells assessed as body weight change at 10 mg/kg, ip administered three times in a week for 20 days; format: organism-based; conditions: in vivo, 480 h, time 20 day
[9] = test system: Gemcitabine-resistant PANC-1; assay: Effect on PRAS40 expression in human Gemcitabine-resistant PANC-1 cells at 40 to 160 nM by Western blot analysis; format: functional, cell-based; conditions: dose 40-160 nM
[10] = test system: Gemcitabine-resistant PANC-1; assay: Effect on STAT5 expression in human Gemcitabine-resistant PANC-1 cells at 40 to 160 nM by Western blot analysis; format: functional, cell-based; conditions: dose 40-160 nM
[11] = test system: Gemcitabine-resistant PANC-1; assay: Cell cycle distribution in human Gemcitabine-resistant PANC-1 cells assessed as G2/M phase cells at 80 nM incubated for 24 hrs by RNase/PI staining based flow cytometric analysis (reference value: 37.53 %); format: functional
[12] = Toxicity in male BALB/c nude mouse at 40 mg/kg, ip; format: organism-based; conditions: in vivo
[13] = test system: Gemcitabine-resistant PANC-1; assay: Cell cycle distribution in human Gemcitabine-resistant PANC-1 cells assessed as S phase cells at 160 nM incubated for 24 hrs by RNase/PI staining based flow cytometric analysis (reference value: 17.32 %); format: functional
[14] = test system: Gemcitabine-resistant PANC-1; assay: Induction of apoptosis in human Gemcitabine-resistant PANC-1 cells assessed as upregulation of cleaved caspase-8 level at 160 nM incubated for 48 hrs by Western blot analysis; format: functional, cell-based
[15] = test system: Gemcitabine-resistant PANC-1; assay: Downregulation of p-Akt expression in human Gemcitabine-resistant PANC-1 cells at 40 to 160 nM incubated for 24 hrs by Western blotting; format: functional, cell-based; conditions: dose 40-160 nM
[16] = test system: Gemcitabine-resistant PANC-1; assay: Induction of apoptosis in human Gemcitabine-resistant PANC-1 cells assessed as total cell death at 40 nM incubated for 48 hrs by Annexin V-FITC/PI staining based flow cytometric analysis relative to control; format: functional
[17] = target: T1, Protein kinase C beta type (Homo sapiens, UniProt P05771); assay: Induction of thermal stabilization of PKCbeta1 in human Gemcitabine-resistant PANC-1 cells at 10 uM incubated for 1 hrs at 40 to 65 degreeC by CETSA; format: cell-based
T1 sequence (P05771 2-671 limits assumed): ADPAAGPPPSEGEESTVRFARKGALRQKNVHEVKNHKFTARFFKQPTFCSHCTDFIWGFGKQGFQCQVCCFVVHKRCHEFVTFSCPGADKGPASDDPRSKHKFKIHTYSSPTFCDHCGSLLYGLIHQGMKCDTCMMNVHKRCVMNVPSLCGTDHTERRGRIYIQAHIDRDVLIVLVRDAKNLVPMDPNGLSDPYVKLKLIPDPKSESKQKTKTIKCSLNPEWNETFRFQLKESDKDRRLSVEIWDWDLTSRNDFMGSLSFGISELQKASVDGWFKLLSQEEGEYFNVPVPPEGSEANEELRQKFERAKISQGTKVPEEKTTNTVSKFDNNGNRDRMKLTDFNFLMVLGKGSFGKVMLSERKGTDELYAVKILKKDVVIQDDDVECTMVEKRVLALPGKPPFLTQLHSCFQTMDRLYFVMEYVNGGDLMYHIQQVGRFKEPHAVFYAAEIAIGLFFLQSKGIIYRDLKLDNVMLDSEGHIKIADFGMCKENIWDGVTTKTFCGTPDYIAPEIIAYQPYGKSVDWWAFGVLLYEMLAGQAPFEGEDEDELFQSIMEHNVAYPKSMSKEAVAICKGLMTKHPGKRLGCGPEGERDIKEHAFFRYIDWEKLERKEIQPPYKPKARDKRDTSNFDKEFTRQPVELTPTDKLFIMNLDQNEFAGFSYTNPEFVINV

[18] = test system: Gemcitabine-resistant PANC-1; assay: Induction of cell cycle arrest in human Gemcitabine-resistant PANC-1 cells assessed as upregulation of cyclin B1 protein expression level at 40 to 160 nM incubated for 24 hrs by Western blot analysis; format: functional, cell-based; conditions: dose 40-160 nM
[19] = test system: Gemcitabine-resistant PANC-1; assay: In vivo inhibition of PKCbeta1 in male BALB/c nude mouse xenografted with human Gemcitabine-resistant PANC-1 cells assessed as reduction in PKCbeta1 expression in tumor at 10 mg/kg, ip administered three times in a week for 20 days by Western blot analysis; format: functional, organism-based; conditions: time 20.0 day
[20] = test system: Gemcitabine-resistant PANC-1; assay: Induction of cell cycle arrest in human Gemcitabine-resistant PANC-1 cells assessed as downregulation of cyclin D1 protein expression level at 40 to 160 nM incubated for 24 hrs by Western blot analysis; format: functional, cell-based; conditions: dose 40-160 nM
[21] = test system: Gemcitabine-resistant PANC-1; assay: Inhibition of p70S6K phosphorylation in human Gemcitabine-resistant PANC-1 cells at 160 nM incubated for 24 hrs by phospho-kinase array analysis; format: cell-based
[22] = target: Serine/threonine-protein kinase AKT (Homo sapiens) (UniProt P31751+Q9Y243+P31749); assay: Inhibition of Akt phosphorylation in human Gemcitabine-resistant PANC-1 cells at 160 nM incubated for 24 hrs by phospho-kinase array analysis; format: cell-based
Serine/threonine-protein kinase AKT (Homo sapiens), sequence (P31749 whole entry, looked up): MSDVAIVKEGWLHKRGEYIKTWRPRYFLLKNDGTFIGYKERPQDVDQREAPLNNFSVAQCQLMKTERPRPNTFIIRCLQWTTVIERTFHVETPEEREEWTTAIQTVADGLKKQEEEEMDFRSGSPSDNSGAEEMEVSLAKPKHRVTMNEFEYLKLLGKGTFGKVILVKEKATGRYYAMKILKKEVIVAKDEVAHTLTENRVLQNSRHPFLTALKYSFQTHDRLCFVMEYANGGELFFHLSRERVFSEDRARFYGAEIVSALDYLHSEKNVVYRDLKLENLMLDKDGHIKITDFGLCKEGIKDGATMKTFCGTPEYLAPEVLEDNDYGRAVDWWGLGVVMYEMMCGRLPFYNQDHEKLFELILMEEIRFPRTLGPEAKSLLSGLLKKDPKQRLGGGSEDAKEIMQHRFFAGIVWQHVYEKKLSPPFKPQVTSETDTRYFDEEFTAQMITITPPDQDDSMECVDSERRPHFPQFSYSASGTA
Serine/threonine-protein kinase AKT (Homo sapiens), sequence (P31751 whole entry, looked up): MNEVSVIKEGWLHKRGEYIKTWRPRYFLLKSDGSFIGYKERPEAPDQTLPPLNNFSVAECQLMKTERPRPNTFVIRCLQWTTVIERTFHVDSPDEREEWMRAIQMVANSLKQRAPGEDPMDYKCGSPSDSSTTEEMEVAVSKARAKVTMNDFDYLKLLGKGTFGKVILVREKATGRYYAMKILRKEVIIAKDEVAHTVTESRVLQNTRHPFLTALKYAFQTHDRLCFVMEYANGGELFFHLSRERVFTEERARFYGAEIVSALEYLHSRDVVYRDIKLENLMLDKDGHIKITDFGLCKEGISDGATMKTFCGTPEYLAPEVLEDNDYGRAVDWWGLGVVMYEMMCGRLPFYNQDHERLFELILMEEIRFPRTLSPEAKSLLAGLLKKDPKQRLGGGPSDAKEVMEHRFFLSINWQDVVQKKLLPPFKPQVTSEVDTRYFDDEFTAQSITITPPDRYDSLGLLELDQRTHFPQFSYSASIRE
Serine/threonine-protein kinase AKT (Homo sapiens), sequence (Q9Y243 whole entry, looked up): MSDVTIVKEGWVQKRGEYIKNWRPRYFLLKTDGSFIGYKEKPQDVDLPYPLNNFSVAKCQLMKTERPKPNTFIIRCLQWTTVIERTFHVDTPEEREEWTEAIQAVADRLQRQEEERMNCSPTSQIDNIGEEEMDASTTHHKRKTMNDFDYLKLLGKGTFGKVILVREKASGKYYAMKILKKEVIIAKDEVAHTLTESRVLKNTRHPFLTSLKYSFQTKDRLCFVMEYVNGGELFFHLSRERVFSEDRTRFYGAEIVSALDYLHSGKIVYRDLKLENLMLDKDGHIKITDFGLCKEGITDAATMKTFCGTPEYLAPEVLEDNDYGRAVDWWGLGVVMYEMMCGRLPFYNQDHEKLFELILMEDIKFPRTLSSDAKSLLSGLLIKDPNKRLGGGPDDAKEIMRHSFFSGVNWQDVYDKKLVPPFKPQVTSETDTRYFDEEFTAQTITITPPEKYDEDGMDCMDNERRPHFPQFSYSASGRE

[23] = target: Proline-rich AKT1 substrate 1 (Homo sapiens) (UniProt Q96B36); assay: Inhibition of PRAS40 phosphorylation in human Gemcitabine-resistant PANC-1 cells at 160 nM incubated for 24 hrs by phospho-kinase array analysis; format: cell-based
[24] = test system: Gemcitabine-resistant PANC-1; assay: Effect on GSK3beta expression in human Gemcitabine-resistant PANC-1 cells at 40 to 160 nM by Western blot analysis; format: functional, cell-based; conditions: dose 40-160 nM
[25] = test system: Gemcitabine-resistant PANC-1; assay: Induction of cell cycle arrest in human Gemcitabine-resistant PANC-1 cells assessed as upregulation of p27 protein expression level at 40 to 160 nM incubated for 24 hrs by Western blot analysis; format: functional, cell-based; conditions: dose 40-160 nM
[26] = test system: Gemcitabine-resistant PANC-1; assay: Cell cycle distribution in human Gemcitabine-resistant PANC-1 cells assessed as sub-G1 phase cells at 40 nM incubated for 24 hrs by RNase/PI staining based flow cytometric analysis (reference value: 0.30 %); format: functional
[27] = target: T1, Protein kinase C beta type; assay: Inhibition of PKCbeta1 in human Gemcitabine-resistant PANC-1 cells incubated for 24 hrs; format: cell-based; conditions: dose 40-200 nM
[28] = test system: Gemcitabine-resistant PANC-1; assay: Downregulation of PKCdelta expression in human Gemcitabine-resistant PANC-1 cells at 40 to 160 nM incubated for 24 hrs by Western blotting; format: functional, cell-based; conditions: dose 40-160 nM

For CC(=O)Oc1ccc2[nH]c3c(c2c1)CCN1C(=O)c2ccccc2N(C)[C@H]31, the Activity [1] was 58.51%, the inhibition [2] was “Active” and the Activity [3] was “Active”. The Activity [4] was 34.14%, the IC50 (PANC-1) was no more than 80 nM and the Activity [5] was “Active”. For the same molecule, the Activity [6] was “Active”, the Activity [7] was 44.89% and the Activity [8] was “Non-Toxic”. The Activity [9] was “inactive”, the Activity [10] was “inactive” and the Activity [11] was 48.98%. For the same molecule, the Activity [12] was “Non-Toxic”, the Activity [13] was 14.05% and the Activity [14] was “Active”. The Activity [15] was “Active”, the Activity [16] was 15.83% and the Activity [17] was “Active”. For the same molecule, the Activity [18] was “Active”, the inhibition [19] was “Active” and the Activity [20] was “Active”. For the same molecule, the inhibition [21] was “Active”, the inhibition [22] was “Active” and the inhibition [23] was “Active”. The Activity [24] was “inactive”, the Activity [25] was “Active” and the Activity [26] was 0.34%. For the same molecule, the inhibition [27] was “Dose-Dependent Effect” and the Activity [28] was “inactive”.
